Bridge positions count the residues as written; N and C are the ends. Square brackets hold non-standard residues; d marks the D form. Peptide text beside a SMILES is read from it. Sar = CNCC(=O)O
How the values were obtained:
Type in all cases: functional
Oryctolagus cuniculus [1] = organism: Oryctolagus cuniculus; test: Compound was tested for dose-related reduction of the mean blood pressure on boluses of different dose of 2 mg via ear vein; value ranges from 0 to -20
Oryctolagus cuniculus [2] = organism: Oryctolagus cuniculus; test: Compound was tested for dose-related reduction of the mean blood pressure on boluses of different dose of 1 mg via ear vein; value ranges from 0 to -20
Oryctolagus cuniculus [3] = test: Compound was tested for dose-dependent hypertensive response in infused anesthetized rabbits at 20 ug/min
Oryctolagus cuniculus [4] = test: Compound was tested for dose-dependent hypertensive response in infused anesthetized rabbits at 10 ug/min
Oryctolagus cuniculus [5] = test: Compound was tested for dose-dependent hypertensive response in infused anesthetized rabbits at 30 ug/min
Oryctolagus cuniculus [6] = organism: Oryctolagus cuniculus; test: Compound was tested for dose-related reduction of the mean blood pressure on boluses of different dose of 300 mg via ear vein
Oryctolagus cuniculus [7] = organism: Oryctolagus cuniculus; test: Compound was tested for dose-related reduction of the mean blood pressure on boluses of different dose of 75 mg via ear vein
Oryctolagus cuniculus [8] = organism: Oryctolagus cuniculus; test: Compound was tested for dose-related reduction of the mean blood pressure on boluses of different dose of 150 mg via ear vein
Oryctolagus cuniculus [9] = test: Compound was tested for dose-dependent hypertensive response in infused anesthetized rabbits at 2 ug/min
Oryctolagus cuniculus [10] = test: Compound was tested for dose-dependent hypertensive response in infused anesthetized rabbits at 1 ug/min
Oryctolagus cuniculus [11] = test: Compound was tested for dose-dependent hypertensive response in infused anesthetized rabbits at 3 ug/min
Oryctolagus cuniculus [12] = organism: Oryctolagus cuniculus; test: Compound was tested for dose-related reduction of the mean blood pressure on boluses of different dose of 0.1 mg via ear vein
Oryctolagus cuniculus [13] = organism: Oryctolagus cuniculus; test: Compound was tested for dose-related reduction of the mean blood pressure on boluses of different dose of 0.2 mg via ear vein; value ranges from -40 to -60
Oryctolagus cuniculus [14] = organism: Oryctolagus cuniculus; test: Compound was tested for dose-related reduction of the mean blood pressure on boluses of different dose of 0.05 mg via ear vein; value ranges from -20 to -40

How did the “Delta mean blood pressure” value (Oryctolagus cuniculus [1]) turn out when OCc1nc2ccccc2n1Cc1ccc(-c2ccccc2C2=NC(Cc3ccccc3)N=N2)cc1 (centres undefined) was run?
The value was 0.

What about the “Delta mean blood pressure” value (Oryctolagus cuniculus [2]) of the same molecule?
The value was 0.

CNCC(=O)N[C@@H](CCCN=C(N)N)C(=O)N[C@H]1CCC(=O)NCCCC[C@@H](C(=O)N[C@@H](Cc2c[nH]cn2)C(=O)N2CCC[C@H]2C(=O)N[C@@H](Cc2ccccc2)C(=O)O)NC(=O)[C@H](Cc2ccc(O)cc2)NC1=O (H-[Sar]REYKHPF-OH; lactam 3-5) was tested. Which Response (Oryctolagus cuniculus [3]) did it give?
The Response was 40%.

And the Response (Oryctolagus cuniculus [4])?
The Response was 0%.

What about the Response (Oryctolagus cuniculus [5]) of the same molecule?
Its Response is 60%.

How did the “Delta mean blood pressure” value (Oryctolagus cuniculus [6]) turn out when CC[C@H](C)[C@H](NC(=O)[C@@H]1CCCN1C(=O)[C@H](Cc1c[nH]cn1)NC(=O)[C@@H]1CCCCNC(=O)CC[C@H](NC(=O)[C@H](CCCN=C(N)N)NC(=O)CNC)C(=O)N[C@@H](Cc2ccc(O)cc2)C(=O)N1)C(=O)O (H-[Sar]REYKHPI-OH; lactam 3-5) was run?
The value was -20.

And the “Delta mean blood pressure” value (Oryctolagus cuniculus [7])?
The value was 0.

And the “Delta mean blood pressure” value (Oryctolagus cuniculus [8])?
Its value is 0.

With CC[C@H](C)[C@H](NC(=O)[C@H](Cc1ccc(O)cc1)NC(=O)[C@@H](NC(=O)[C@H](CCCNC(=N)N)NC(=O)[C@@H](N)CC(=O)O)C(C)C)C(=O)N[C@@H](Cc1cnc[nH]1)C(=O)N1CCC[C@H]1C(=O)N[C@@H](Cc1ccccc1)C(=O)O [ANGIOTENSIN II] as the molecule, how does the Response (Oryctolagus cuniculus [9]) read?
The Response was 20%.

What about the Response (Oryctolagus cuniculus [10]) of the same molecule?
Its Response is 20%.

What about the Response (Oryctolagus cuniculus [11]) of the same molecule?
The Response was 40%.

CCCCc1nc(Cl)c(CO)n1Cc1ccc(-c2ccccc2-c2nnn[nH]2)cc1 [LOSARTAN] was tested. Which “Delta mean blood pressure” value (Oryctolagus cuniculus [12]) did it give?
Its value is -40.

What about the “Delta mean blood pressure” value (Oryctolagus cuniculus [13]) of the same molecule?
Its value is -40.

What about the “Delta mean blood pressure” value (Oryctolagus cuniculus [14]) of the same molecule?
The value was -20.

From ChEMBL document CHEMBL1135334, “Design, synthesis and biological evaluation of cyclic angiotensin II analogues with 3,5 side-chain bridges. Role of C-terminal aromatic residue and ring cluster for activity and implications in the drug design of AT1 non-peptide antagonists” (2002)
